Data published in publication PMC9413440, “An Iterative Approach Guides Discovery of the FabI Inhibitor Fabimycin, a Late-Stage Antibiotic Candidate with In Vivo Efficacy against Drug-Resistant Gram-Negative Infections” (ACS Central Science, 2022).
Values after ≈ are worked out from the molar mass of the structure shown.

Tests used:
E. coli ΔtolC (JW5503) = test: MIC, broth microdilution (CLSI); format: cell-based, Escherichia coli; details: Escherichia coli
Experimental: (§1) II. Materials and Methods for Biological Experiments
(§2) S. aureus ATCC 29213 and E. coli MG1655 were obtained from the American Type Culture Collection (ATCC). E. coli BW25113 and E. coli JW5503 were obtained from the Keio Collection. AR-bank strains were obtained from the Centers for Disease Control and Prevention and FDA Antibiotic Resistance Isolate Bank.
(§3) Antimicrobial susceptibility tests
(§4) Susceptibility testing was performed in biological triplicate, unless noted otherwise, using the micro-dilution broth method as outlined by the Clinical and Laboratory Standards Institute. Bacteria were cultured with cation-adjusted Mueller Hinton broth (Sigma Aldrich, catalogue number: 90922). […]
(§5) NH3: m/z 391.2 → 171.0. Fabimycin: m/z 405.3 → 145.3. Power analysis was not used to determine the number of replicates. Error bars represent the standard error of the mean of three biological replicates. All compounds evaluated in biological assays were ≥95% pure.

S. aureus ATCC 29213 = test: MIC, broth microdilution (CLSI); format: cell-based; details: Staphylococcus aureus, ATCC29213; S. aureus 29213
Experimental: as §1, §2, §3, §4, §5

E. coli MG1655 = test: MIC, broth microdilution (CLSI); format: cell-based; details: Escherichia coli
Experimental: as §1, §2, §3, §4, §5

A. baumannii AR-0299 = test: MIC, broth microdilution (CLSI); format: cell-based; details: Acinetobacter baumannii, AR0299; A. baumannii AR-0299 clinical isolate; † = dose-independent trailing growth
Experimental: as §1, §2, §3, §4, §5

E. coli AR-0048 = test: MIC, broth microdilution (CLSI); format: cell-based; details: Escherichia coli, AR0048; E. coli AR-0048 clinical isolate
Experimental: as §1, §2, §3, §4, §5

A. baumannii AR-0273 = test: MIC, broth microdilution (CLSI); format: cell-based; details: Acinetobacter baumannii, AR0273; A. baumannii AR-0273 clinical isolate
Experimental: as §1, §2, §3, §4, §5

K. pneumoniae AR-0560 = test: MIC, broth microdilution (CLSI); format: cell-based; details: Klebsiella pneumoniae, AR0560; K. pneumoniae AR-0560 clinical isolate
Experimental: as §1, §2, §3, §4, §5

A. baumannii AR-0033 = test: MIC, broth microdilution (CLSI); format: cell-based; details: Acinetobacter baumannii, AR0033; A. baumannii AR-0033 clinical isolate; † = dose-independent trailing growth
Experimental: as §1, §2, §3, §4, §5

K. pneumoniae BAA-2472 = test: MIC, broth microdilution (CLSI); format: cell-based; details: Klebsiella pneumoniae, BAA2472
Experimental: as §1, §2, §3, §4, §5

E. coli AR-0085 = test: MIC, broth microdilution (CLSI); format: cell-based; details: Escherichia coli, AR0085; E. coli AR-0085 clinical isolate
Experimental: as §1, §2, §3, §4, §5

K. pneumoniae AR-0066 = test: MIC, broth microdilution (CLSI); format: cell-based; details: Klebsiella pneumoniae, AR0066; K. pneumoniae AR-0066 clinical isolate
Experimental: as §1, §2, §3, §4, §5

A. baumannii AR-0313 = test: MIC, broth microdilution (CLSI); format: cell-based; details: Acinetobacter baumannii, AR0313; A. baumannii AR-0313 clinical isolate; † = dose-independent trailing growth
Experimental: as §1, §2, §3, §4
(§6) Error bars represent the standard error of the mean of three biological replicates. All compounds evaluated in biological assays were ≥95% pure.

K. pneumoniae AR-0113 = test: MIC, broth microdilution (CLSI); format: cell-based; details: Klebsiella pneumoniae, AR0113; K. pneumoniae AR-0113 clinical isolate
Experimental: as §1, §2, §3, §4, §6

[1] = test system: K. pneumoniae clinical isolates (n=100); test: MIC50/MIC90, clinical isolate panel; format: cell-based; details: Klebsiella pneumoniae; K. pneumoniae (n=100) clinical isolates
Excerpt: Figure 4 Antimicrobial activity of fabimycin against clinical isolates. (A) The susceptibility of clinical isolates (Gram-negative species and S. aureus) to fabimycin, Debio-1452-NH3, and Debio-1452. MICs performed in biological triplicate. (B) Further exploration of the breadth of fabimycin’s antibacterial activity against diverse clinical isolate panels of K. pneumoniae and A. baumannii, as compared to levofloxacin. MICs performed in biological duplicate.
as §1, §2, §3, §4, §6

[2] = test system: A. baumannii clinical isolates (n=100); test: MIC50/MIC90, clinical isolate panel; format: cell-based; details: Acinetobacter baumannii; A. baumannii (n=100) clinical isolates

MIC50 [1] | MIC90 [1] | MIC50 [2] | MIC90 [2] | Structure (SMILES) | MIC (E. coli ΔtolC (JW5503)) | MIC (S. aureus ATCC 29213) | MIC (E. coli MG1655) | MIC (A. baumannii AR-0299) | MIC (E. coli AR-0048) | MIC (A. baumannii AR-0273) | MIC (K. pneumoniae AR-0560) | MIC (A. baumannii AR-0033) | MIC (K. pneumoniae BAA-2472) | MIC (E. coli AR-0085) | MIC (K. pneumoniae AR-0066) | MIC (A. baumannii AR-0313) | MIC (K. pneumoniae AR-0113)
– | – | – | – | Cc1c(CN(C)C(=O)/C=C/c2cnc3c(c2)CC2(CCC(CN)CC2)C(=O)N3)oc2ccccc12 (racemic) [(±)-6] | 0.062 µg/mL (≈ 0.131 µM) | 0.031 µg/mL (≈ 0.0656 µM) | 16 µg/mL (≈ 33.9 µM) | – | – | – | – | – | – | – | – | – | –
– | – | – | – | Cc1c(CN(C)C(=O)/C=C/c2cnc3c(c2)CC2(CC(CN)C2)C(=O)N3)oc2ccccc12 (racemic) [(±)-4] | 0.125 µg/mL (≈ 0.281 µM) | 0.031 µg/mL (≈ 0.0697 µM) | 16 µg/mL (≈ 36 µM) | – | – | – | – | – | – | – | – | – | –
– | – | – | – | Cc1c(CN(C)C(=O)/C=C/c2cnc3c(c2)CC2(CCC(N)CC2)C(=O)N3)oc2ccccc12 (racemic) [(±)-5] | 0.062 µg/mL (≈ 0.135 µM) | 0.016 µg/mL (≈ 0.0349 µM) | 16 µg/mL (≈ 34.9 µM) | – | – | – | – | – | – | – | – | – | –
– | – | – | – | Cc1c(CN(C)C(=O)/C=C/c2cnc3c(c2)CC2(CNC2)C(=O)N3)oc2ccccc12 [compound 2] | 0.031 µg/mL (≈ 0.0744 µM) | 0.016 µg/mL (≈ 0.0384 µM) | 4 µg/mL (≈ 9.6 µM) | 16 µg/mL (≈ 38.4 µM) | 8 µg/mL (≈ 19.2 µM) | 8 µg/mL (≈ 19.2 µM) | 16 µg/mL (≈ 38.4 µM) | 8 µg/mL (≈ 19.2 µM) | 8 µg/mL (≈ 19.2 µM) | 4 µg/mL (≈ 9.6 µM) | 8 µg/mL (≈ 19.2 µM) | 16 µg/mL (≈ 38.4 µM) | 16 µg/mL (≈ 38.4 µM)
0.5 µg/mL (≈ 1.38 µM) | 32 µg/mL (≈ 88.6 µM) | 4 µg/mL (≈ 11.1 µM) | 32 µg/mL (≈ 88.6 µM) | C[C@H]1COc2c(N3CCN(C)CC3)c(F)cc3c(=O)c(C(=O)O)cn1c23 [levofloxacin, reference compound] | – | – | – | – | – | – | – | – | – | – | – | – | –
– | – | – | – | Cc1c(CN(C)C(=O)/C=C/c2cnc3c(c2)CC2(CC(N)C2)C(=O)N3)oc2ccccc12 (racemic) [(±)-3] | 0.062 µg/mL (≈ 0.144 µM) | 0.016 µg/mL (≈ 0.0372 µM) | 4 µg/mL (≈ 9.29 µM) | 16 µg/mL (≈ 37.2 µM) | 16 µg/mL (≈ 37.2 µM) | 16 µg/mL (≈ 37.2 µM) | 8 µg/mL (≈ 18.6 µM) | 16 µg/mL (≈ 37.2 µM) | 8 µg/mL (≈ 18.6 µM) | 16 µg/mL (≈ 37.2 µM) | 8 µg/mL (≈ 18.6 µM) | 32 µg/mL (≈ 74.3 µM) | 16 µg/mL (≈ 37.2 µM)
